Results published in patent US4977268A, “Boron dipeptide compounds” (priority 1988, dated 1990).
In brackets after ≈: the same amount, converted by molar mass.

Tests used:
[1] = system: Ehrlich ascites carcinoma; assay: Ehrlich ascites carcinoma in vivo screen; parameters: concentration or dose not given beside the values; conditions: CF-1 mice
[2] = system: L-1210 lymphoid leukemia; assay: Cytotoxic assay, L-1210 lymphoid leukemia cell line; type: cell-based; conditions: dosage required to kill 50 percent of the tumor cells in cell culture
Description: (§2) Boron dipeptide analogs were investigated for potential antineoplastic activity in the Ehrlich ascites carcinoma in vivo screen in CF-1 mice and in cytotoxic assays involving the L-1210 lymphoid leukemia and P-388 lymphocytic leukemia cell lines. The ED50 is the effective dosage required to kill 50 percent of the tumor cells in the leukemia cell culture.

[3] = system: P-388 lymphocytic leukemia; assay: Cytotoxic assay, P-388 lymphocytic leukemia cell line; type: cell-based; conditions: dosage required to kill 50 percent of the tumor cells in cell culture
Description: as §2

[4] = system: serum cholesterol levels; assay: Antihyperlipidemic screen, serum cholesterol; type: in vivo; conditions: male CF1 mice
Description: (§1) Compounds to be tested were suspended in 1% aqueous carboxymethylcellulose and administered to male CF1 mice (25 g) intraperitoneally for 16d. On days 9 and 16, blood was obtained by tail vein bleeding, and the serum was separated by centrifugation for three minutes. The serum cholesterol levels were determined by a modification of the Liebermann-Burchard reaction [A. T. Ness, J. V. Pastewka, and A. C. Peacock, Clin. Chim. Acta, 10, 229 (1964)]. Serum triglyceride levels were determined with a commercial kit [Fisher, Hycel Triglyceride Test Kit] for a different group of animal bled on day 16.

[5] = system: Serum triglyceride levels; assay: Antihyperlipidemic screen, serum triglyceride; type: in vivo; conditions: male CF1 mice
Description: as §1

Compound | In Vivo % Inhibition of Ehrlich Ascites Carcinoma Growth [1] | ED50 Cytotoxicity L-1210 Lymphoid Leukemia [2] | ED50 Cytotoxicity P-388 Lymphocytic Leukemia [3] | % Inhibition Serum Cholesterol Day 9 ([4]; 8 mg/kg intraperitoneally) | % Inhibition Serum Cholesterol Day 16 ([4]; 8 mg/kg intraperitoneally) | % Inhibition Serum Triglyceride Day 16 ([5]; 8 mg/kg intraperitoneally) | % Inhibition Serum Cholesterol Day 9 ([4]; 20 mg/kg intraperitoneally) | % Inhibition Serum Cholesterol Day 16 ([4]; 20 mg/kg intraperitoneally) | % Inhibition Serum Triglyceride Day 16 ([5]; 20 mg/kg intraperitoneally)
NC(=O)C(CO)NC(=O)[BH2-][NH3+] (stereo not drawn) [Compound 2, N-[(Ammoniaboryl)carbonyl]serine amide] | 52% | 10.6 µg/mL (≈ 65.9 µM) | 8.73 µg/mL (≈ 54.2 µM) |  |  |  |  |  | 
NC(=O)CNC(=O)[BH2-][NH3+] [Compound 1, N-[(ammonia-boryl)carbonyl]glycine amide] | 67% | 1.40 µg/mL (≈ 10.7 µM) | 7.62 µg/mL (≈ 58.2 µM) | 21% | 42% | 53% |  |  | 
COC(=O)[C@H](Cc1ccccc1)NC(=O)[BH2-][N+](C)(C)C [Compound 13, N-[(Trimethylamine-boryl)carbonyl]-L-phenylalanine methyl ester] | 94% | 10.84 µg/mL (≈ 39 µM) | 8.89 µg/mL (≈ 32 µM) |  |  |  | 25% | 48% | 33%
COC(=O)[C@H](CCSC)NC(=O)[BH2-][N+](C)(C)C [Compound 9, N-[(Trimethylamine-boryl)carbonyl]-L-methionine methyl ester] | 41% | 6.62 µg/mL (≈ 25.2 µM) | 12.86 µg/mL (≈ 49 µM) |  |  |  | 55% | 55% | 23%
COC(=O)[C@H](C)NC(=O)[BH2-][N+](C)(C)C [Compound 16, N-[(Trimethylamine-boryl)carbonyl]-L-alanine methyl ester] | 83% |  |  |  |  |  |  |  | 
N[C@@H](Cc1ccc(N(CCCl)CCCl)cc1)C(=O)O [Melphalan, reference compound] | 99% |  |  |  |  |  |  |  | 
COC(=O)CNC(=O)[BH2-][N+](C)(C)C [Compound 7, N-[(Trimethylamine-boryl)carbonyl]glycine methyl ester] | 89% | 7.00 µg/mL (≈ 37.2 µM) | 12.11 µg/mL (≈ 64.4 µM) | 21% | 42% | 59% | 31% | 52% | 30%
CSCCC(NC(=O)[BH2-][NH3+])C(N)=O (stereo not drawn) [Compound 3, N-[(Ammonia-boryl)carbonyl] methionine amide] | 75% | 4.17 µg/mL (≈ 20.3 µM) | 8.57 µg/mL (≈ 41.8 µM) |  |  |  |  |  | 
Nc1ccn([C@@H]2O[C@H](CO)[C@@H](O)[C@@H]2O)c(=O)n1 [Ara C, reference compound] |  | 2.76 µg/mL (≈ 11.3 µM) | 4.06 µg/mL (≈ 16.7 µM) |  |  |  |  |  | 
COC(=O)[C@H](CO)NC(=O)[BH2-][N+](C)(C)C [Compound 8, N-[(Trimethylamine-boryl)carbonyl]-L-serine methyl ester] | 61% | 1.98 µg/mL (≈ 9.08 µM) | 9.21 µg/mL (≈ 42.2 µM) |  |  |  |  |  | 
O=c1[nH]cc(F)c(=O)[nH]1 [5-Fluorouracil, reference compound] |  | 1.94 µg/mL (≈ 14.9 µM) | 3.72 µg/mL (≈ 28.6 µM) |  |  |  |  |  | 
Sc1ncnc2nc[nH]c12 [6-Mercaptopurine, reference compound] | 99.6% | 2.43 µg/mL (≈ 16 µM) | 4.10 µg/mL (≈ 26.9 µM) |  |  |  |  |  | 
